{
  "source": "patent CN111729074A",
  "about": "“多肽rl25在制备抗肿瘤药物中的应用” (Zhuhai Campus Of Zunyi Medical University, priority 2020, dated 2020)",
  "key": {"[1]": {"test_system": "HK2 cells (人肾小管上皮细胞)", "test": "MTT assay of cell proliferation, normal cells HK2 (24 h)", "format": "cell-based, human", "settings": "for toxicity / side effect on HK2: in words; for toxicity to normal cells: summary statement"}, "[2]": {"test_system": "3 tumour cells HCT-8, SKVO3, MCF-7 (3种肿瘤细胞)", "test": "MTT assay of cell proliferation, tumour cells (24 h)", "format": "cell-based", "settings": "for inhibitory effect on the 3 tumour cells: HCT-8, SKVO3, MCF-7, 24 h, in words (IC50 table is a picture); for killing effect on / toxicity to various tumour cells: summary statement"}, "[3]": {"test_system": "normal cells (正常细胞)", "settings": "background statement on LL37; cited from earlier work"}, "[4]": {"test_system": "tumour (肿瘤)", "settings": "background statement on LL37; cited from earlier work"}, "[5]": {"test_system": "HCT-8 cells", "test": "ROS in HCT-8 cells, DCFH-DA flow cytometry (24 h)", "format": "cell-based, human", "settings": "HCT-8, 24 h; for ROS content compared with control: P>0.05"}, "[6]": {"test_system": "HCT-8 cells", "test": "HCT-8 apoptosis, Annexin V-FITC/PI flow cytometry (24 h)", "format": "cell-based, human", "settings": "for concentration dependence of apoptosis / average apoptosis rate / early apoptosis: HCT-8, 24 h; for early apoptosis: versus control"}, "[7]": {"test_system": "HCT-8 cells", "test": "HCT-8 mitochondrial membrane potential, JC-1 flow cytometry (24 h)", "format": "cell-based, human", "settings": "HCT-8, 24 h; for mitochondrial membrane potential: with rising concentration (0-4 μM), versus control, P<0.01"}, "[8]": {"test_system": "HCT-8 cells", "test": "MTT assay of cell proliferation, HCT-8 (therapeutic index)", "format": "cell-based, human", "settings": "in words"}, "[9]": {"test": "Earlier antibacterial test", "settings": "initial tests"}},
  "data": [
    {"substance": "LL37: LL37是hCAP-18蛋白中含有37个氨基酸的C端 [reference compound]", "values": [
      {"measurement": "toxicity / side effect on HK2", "setting": "[1]; HK2, 24 h", "result": "毒副作用也很明显"},
      {"measurement": "inhibitory effect on the 3 tumour cells", "setting": "[2]", "result": "抑制效果均表现较好"},
      {"measurement": "toxicity to normal cells", "setting": "[3]", "result": "对正常细胞的毒性较大"},
      {"measurement": "antitumour effect", "setting": "[4]", "result": "良好的抗肿瘤效应"}
    ]},
    {"substance": "RL25: 氨基酸序列为:RLNRLFRKIRQVIRKFEKGIKEKSK", "values": [
      {"measurement": "ROS content, trend", "setting": "[5]; 0-4 μM", "result": "先升高后降低"},
      {"measurement": "ROS content compared with control", "setting": "[5]; 4 μM", "result": "无明显差异"},
      {"measurement": "ROS, mean fluorescence intensity (peak)", "setting": "[5]; peak at 1 μM, versus control P<0.01", "result": "4670±91.804"},
      {"measurement": "toxicity / side effect on HK2", "setting": "[1]; HK2, 24 h", "result": "对正常细胞的毒性小"},
      {"measurement": "toxicity to normal cells compared with LL37", "setting": "[1]; HK2, 24 h, versus positive drug LL37", "result": "毒性明显更小"},
      {"measurement": "toxicity to normal cells", "setting": "[1]", "result": "毒性轻微"},
      {"measurement": "concentration dependence of apoptosis", "setting": "[6]", "result": "明显的浓度依赖性"},
      {"measurement": "average apoptosis rate", "setting": "[6]; 1 μM", "result": 29.56, "unit": "%"},
      {"measurement": "average apoptosis rate", "setting": "[6]; 2 μM", "result": 37.44, "unit": "%"},
      {"measurement": "average apoptosis rate", "setting": "[6]; 4 μM", "result": 55.15, "unit": "%"},
      {"measurement": "early apoptosis", "setting": "[6]", "result": "早期凋亡细胞的数目逐渐增加"},
      {"measurement": "killing effect compared with SE37", "setting": "[6]; HCT-8, 4 μM RL25 versus 6 μM SE37", "result": "强于浓度为6μM的SE37"},
      {"measurement": "mitochondrial membrane potential", "setting": "[7]", "result": "逐渐降低"},
      {"measurement": "therapeutic index, IC50(HK2)/IC50(tumour cells)", "setting": "[2]; 3 tumour cells, in words", "result": "较高"},
      {"measurement": "therapeutic index compared with SE37", "setting": "[2]; 3 tumour cells, versus SE37", "result": "均高于SE37的治疗指数"},
      {"measurement": "inhibitory effect on tumour cells compared with LL37", "setting": "[2]; 3 tumour cells, versus positive drug LL37", "result": "相近或更好"},
      {"measurement": "inhibitory effect on the 3 tumour cells", "setting": "[2]", "result": "很好的抑制效果"},
      {"measurement": "killing effect on / toxicity to various tumour cells", "setting": "[2]", "result": "良好的杀伤效果"},
      {"measurement": "therapeutic index, IC50(HK2)/IC50(HCT-8)", "setting": "[8]", "result": "较高"},
      {"measurement": "antibacterial performance", "setting": "[9]", "result": "较好的抑菌性能"}
    ]},
    {"substance": "SE37: 抗菌肽SE37(其氨基酸序列为:SETRPVLNRLFDKIRQVIRKFEKGIKEKSKRFFDGLL) [reference compound]", "values": [
      {"measurement": "ROS content, trend", "setting": "[5]; 0-8 μM", "result": "先升高后降低"},
      {"measurement": "ROS content compared with control", "setting": "[5]; 8 μM", "result": "已无明显变化"},
      {"measurement": "ROS, mean fluorescence intensity (peak)", "setting": "[5]; peak at 2 μM", "result": "3127.753±96.501"},
      {"measurement": "toxicity / side effect on HK2", "setting": "[1]; HK2, 24 h", "result": "毒副作用也很明显"},
      {"measurement": "toxicity to normal cells", "setting": "[1]", "result": "毒性均较大"},
      {"measurement": "concentration dependence of apoptosis", "setting": "[6]", "result": "一定的浓度依赖性"},
      {"measurement": "average apoptosis rate", "setting": "[6]; 3 μM", "result": 27.39, "unit": "%"},
      {"measurement": "average apoptosis rate", "setting": "[6]; 6 μM", "result": 36.28, "unit": "%"},
      {"measurement": "early apoptosis", "setting": "[6]", "result": "出现明显的早期细胞凋亡"},
      {"measurement": "FL1 channel fluorescence", "setting": "[7]; 0-4 μM", "result": "荧光增多"},
      {"measurement": "FL2 channel fluorescence", "setting": "[7]; 0-4 μM", "result": "荧光减少"},
      {"measurement": "FL1 channel fluorescence signal", "setting": "[7]; 4 μM versus 2 μM", "result": "并未明显增加"},
      {"measurement": "mitochondrial membrane potential", "setting": "[7]", "result": "明显降低"},
      {"measurement": "inhibitory effect on the 3 tumour cells", "setting": "[2]", "result": "抑制效果均表现较好"},
      {"measurement": "killing effect on / toxicity to various tumour cells", "setting": "[2]", "result": "毒性均较大"}
    ]}
  ]
}
